Values quoted from earlier work, collected in patent US9293280B2, “Mixture of hydrofluoroolefine and hydrofluorocarbide to improve the internal ARC resistance in medium and high voltage electric apparatus” (priority 2012, dated 2016).

Assays:
animal population = conditions: causing the death of 50% of an animal population
human = conditions: average limiting content, 8 hours of work for 5 days per week without harmful effect

| SMILES | lethal dose LD50 (animal population) | average exposure value AEV (human) |
| --- | --- | --- |
| O=C(C(F)(F)F)C(F)(C(F)(F)F)C(F)(F)F [C5K, decafluoro-2-methylbutan-3-one] | greater than 200 000 ppm | 1000 ppm |
| F/C=C/C(F)(F)F [HFO-1234ze, trans-1,3,3,3-tetrafluoro-1-propene] | > 200 000 ppm | 1000 ppm |
